Results reported in patent publication US10577315B2, “Compositions and methods for treatment of prostate carcinoma” (Pellficure Pharmaceuticals, Inc., priority 2014, dated 2020).

Test system: PTEN-P2/GFP prostate cancer cells
Assay: Effect of 1,4-naphthoquinone analogs on PTEN-P2/GFP cell proliferation (WST-1 cell viability, 24 h)
Format: cell-based
Settings: Mus musculus, WST-1, medium with 10% FBS and DHT, read-out: PTEN-P2/GFP cell proliferation, percent of control
Protocol: Cells are grown in phenol red-free DMEM medium containing 10% FBS, 2 mM L-glutamine, 100 U/ml penicillin/100 μg/ml streptomycin, insulin-selenium-transferrin (5 μg/ml insulin), and DHT 10^−8M final. Androgen withdrawal is achieved by not adding DHT to the medium. Cells are maintained in a humidified incubator at 37° C. and 5% CO2. G418 (100 μg/ml) is added to maintain stable expression of H2B-GFP.
100 microliters of PTEN-P2/GFP prostate cancer cells were plated at a density of 8000 cells/well in 96-well plates (triplicates) in growing medium containing 10% Fetal Bovine Serum and DHT. The next day, increasing concentrations of a 1,4-naphthoquinone analog (diluted from 10 mM DMSO stock solutions) were added. DMSO used as solvent for all analogs, was kept constant through the 96-well plates. The control consisted of DMSO alone. The cells were subsequently incubated for 24 hours at 37° C. and 5% CO2 in normal cell growth conditions. Cell viability was assessed by adding 9 μL/well of WST-1 reagent (Clontech), which measured mitochondrial activity of live cells. […] The incubation time was 3 hours at 37° C. Optical density of the cell samples was measured at 460 nm, by using plate reader Spectra Max 250 (Molecular Devices). The drug was determined to be cytotoxic when OD values show an inverse correlation with analog concentrations. The results are shown in TABLES 3.1-3.4, FIGS. 2A-2E, and FIGS. 3A-3D.

Structure (SMILES): CC(=O)NC1=C(Oc2ccc(NC(C)=O)cc2)C(=O)c2ccccc2C1=O [Analog F40, N-(4-((3-acetamido-1,4-dioxo-1,4-dihydronaphthalen-2-yl)oxy)phenyl)acetamide]
- activity at 2 µM: 97%
- activity at 3 µM: 98.8%
- activity at 4 µM: 89.2%
- activity at 5 µM: 85.2%
- activity at 6 µM: 73.2%
- activity at 7 µM: 67.3%
- activity at 10 µM: 56.2%
- activity at 15 µM: 46.1%
- activity at 25 µM: 44.6%

Structure (SMILES): COc1ccc(OC2=C(NC(C)=O)C(=O)c3ccccc3C2=O)cc1 [Analog F41, N-(3-(4-methoxyphenoxy)-1,4-dioxo-1,4-dihydronaphthalen-2-yl)acetamide]
- activity at 2 µM: 95.1%
- activity at 3 µM: 89.8%
- activity at 4 µM: 84.5%
- activity at 5 µM: 75%
- activity at 6 µM: 69.6%
- activity at 7 µM: 63.9%
- activity at 10 µM: 36.9%
- activity at 15 µM: 13.5%
- activity at 25 µM: 12.6%

Structure (SMILES): CC(=O)NC1=C(Oc2ccc(OCc3ccccc3)cc2)C(=O)c2ccccc2C1=O [Analog F42, N-(3-(4-(benzyloxy)phenoxy)-1,4-dioxo-1,4-dihydronaphthalen-2-yl)acetamide]
- activity at 2 µM: 101%
- activity at 3 µM: 101%
- activity at 4 µM: 97.6%
- activity at 5 µM: 89.1%
- activity at 6 µM: 83.8%
- activity at 7 µM: 75.3%
- activity at 10 µM: 37.5%
- activity at 15 µM: 20.2%
- activity at 25 µM: 16.6%

Structure (SMILES): CC(=O)NC1=C(Oc2cc(F)cc(F)c2)C(=O)c2ccccc2C1=O [Analog F43, N-(3-(3,5-difluorophenoxy)-1,4-dioxo-1,4-dihydronaphthalen-2-yl)acetamide]
- activity at 2 µM: 94.6%
- activity at 3 µM: 88.7%
- activity at 4 µM: 78.3%
- activity at 5 µM: 68.4%
- activity at 6 µM: 55.3%
- activity at 7 µM: 45.2%
- activity at 10 µM: 32.9%
- activity at 15 µM: 24.7%
- activity at 25 µM: 24.1%

Structure (SMILES): CC(=O)NC1=C(Oc2ccc(OC3=C(NC(C)=O)C(=O)c4ccccc4C3=O)cc2)C(=O)c2ccccc2C1=O [Analog F44, N,N′-((1,4-phenylenebis(oxy))bis(1,4-dioxo-1,4-dihydronaphthalene-3,2-diyl))diacetamide]
- activity at 2 µM: 106%
- activity at 3 µM: 102%
- activity at 4 µM: 69%
- activity at 5 µM: 58.6%
- activity at 6 µM: 50.5%
- activity at 7 µM: 45.4%
- activity at 10 µM: 38.7%
- activity at 15 µM: 20.9%
- activity at 25 µM: 17.1%

Structure (SMILES): COC(=O)CSC1=C(C)C(=O)c2cccc(O)c2C1=O [Analog F46, Methyl 2-((8-hydroxy-3-methyl-1,4-dioxo-1,4-dihydronaphthalen-2-yl)thio)acetate]
- activity at 1 µM: 95.4%
- activity at 2 µM: 90.6%
- activity at 3 µM: 84.9%
- activity at 4 µM: 75%
- activity at 5 µM: 66.1%
- activity at 6 µM: 60.6%
- activity at 7 µM: 54.7%
- activity at 10 µM: 33%
- activity at 25 µM: 13%
- activity at 50 µM: 13.6%

Structure (SMILES): COc1cccc2c1C(=O)C=C(C)C2=O [Analog F47, 5-methoxy-2-methyl-1,4-naphthoquinone]
- activity at 1 µM: 105%
- activity at 2 µM: 104%
- activity at 3 µM: 104%
- activity at 4 µM: 107%
- activity at 5 µM: 105%
- activity at 6 µM: 105%
- activity at 7 µM: 106%
- activity at 10 µM: 109%
- activity at 25 µM: 78.8%
- activity at 50 µM: 11.1%

Structure (SMILES): CC1=CC(=O)c2c(OCCCCI)cccc2C1=O [Analog F48, 5-(4-iodobutoxy)-2-methyl-1,4-naphthoquinone]
- activity at 1 µM: 103%
- activity at 2 µM: 102%
- activity at 3 µM: 102%
- activity at 4 µM: 102%
- activity at 5 µM: 109%
- activity at 6 µM: 112%
- activity at 7 µM: 115%
- activity at 10 µM: 103%
- activity at 25 µM: 11%
- activity at 50 µM: 10%

Structure (SMILES): COc1ccc(OC)c2c1C(=O)C=CC2=O [Analog F52, 5,8-dimethoxy-1,4-naphthoquinone]
- activity at 1 µM: 106%
- activity at 2 µM: 108%
- activity at 3 µM: 112%
- activity at 4 µM: 113%
- activity at 5 µM: 111%
- activity at 6 µM: 106%
- activity at 7 µM: 93.3%
- activity at 10 µM: 52.1%
- activity at 25 µM: 11.2%
- activity at 50 µM: 11.9%

Structure (SMILES): CCOC1=CC(=O)c2ccccc2C1=O [Analog F53, 2-ethoxy-1,4-naphthoquinone]
- activity at 1 µM: 94%
- activity at 2 µM: 91.8%
- activity at 3 µM: 89.9%
- activity at 4 µM: 93.2%
- activity at 5 µM: 93.7%
- activity at 6 µM: 92.5%
- activity at 7 µM: 93.4%
- activity at 10 µM: 94.1%
- activity at 25 µM: 28.6%
- activity at 50 µM: 12.9%

Structure (SMILES): O=C1C(Br)=C(Oc2ccc(OC3=C(Br)C(=O)c4ccccc4C3=O)cc2)C(=O)c2ccccc21 [Analog F57, 3,3′-(1,4-phenylenebis(oxy))bis(2-bromonaphthalene-1,4-dione)]
- activity at 2 µM: 98.2%
- activity at 3 µM: 98%
- activity at 4 µM: 98.6%
- activity at 5 µM: 98.9%
- activity at 6 µM: 95.7%
- activity at 7 µM: 86.7%
- activity at 10 µM: 61.4%
- activity at 15 µM: 42.8%
- activity at 25 µM: 17.4%
